Laboratory results from US20260226068A1, “IMIDAZOTRIAZINE IL-17A MODULATORS AND USES THEREOF” (DICE ALPHA, INC., priority 2023, published 2026).

Key:
IL-17A/A = target: T1, IL-17A/A (Homo sapiens, UniProt Q16552); test: IL-17A/A HEK-Blue cell assay (SEAP reporter); format: cell-based; conditions: HEK-Blue IL-17A reporter cells, IL17A/A 5 ng/mL, 20 hours, SEAP read at A630; read-out: HEK-Blue IL17AA (IC50 for IL-17A/A inhibition)
T1 construct: purchased Genscript Z03228
T1 sequence (Q16552 24-155): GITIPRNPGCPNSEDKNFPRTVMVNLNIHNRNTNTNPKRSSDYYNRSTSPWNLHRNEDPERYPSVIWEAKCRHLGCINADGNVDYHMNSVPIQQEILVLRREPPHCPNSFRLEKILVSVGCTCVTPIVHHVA

IL-17A/F = target: T2, IL-17A/F (Homo sapiens, UniProt Q16552+Q96PD4); test: IL-17A/F HEK-Blue cell assay (SEAP reporter); format: cell-based; conditions: HEK-Blue IL-17A reporter cells, IL17A/F 5 ng/mL, 20 hours, SEAP read at A630; read-out: HEK-Blue IL17AF (IC50 for IL-17A/F inhibition)
T2 construct: purchased R&D Systems
T2 sequence (Q16552 24-155): T1 sequence (Q16552 24-155)
T2 sequence (Q96PD4 31-163): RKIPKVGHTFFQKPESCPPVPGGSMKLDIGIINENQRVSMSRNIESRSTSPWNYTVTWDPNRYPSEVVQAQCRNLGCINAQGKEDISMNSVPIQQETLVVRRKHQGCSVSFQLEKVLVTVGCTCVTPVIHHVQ

| Compound | IC50 (IL-17A/A) [nM] | IC50 (IL-17A/F) [nM] |
| --- | --- | --- |
| CCn1nccc1C(=O)N[C@H](c1cn2nc(C[C@H]3C[C@@H](C(F)(F)F)CNC3=O)c(C3CCCN(CCOC)C3)nc2n1)C1CCC(F)(F)CC1 (stereo partly drawn) [Compound 226, N-((1S)-(4,4-difluorocyclohexyl)(3-(1-(2-methoxyethyl)piperidin-3-yl)-2-(((3R,5R)-2-oxo-5-(trifluoromethyl)piperidin-3-yl)methyl)imidazo[1,2-b][1,2,4]triazin-6-yl)methyl)-1-ethyl-1H-pyrazole-5-carboxamide] | < 100 | > 1000 |
| Cn1ncnc1C(=O)N[C@H](c1cn2nc(C[C@H]3C[C@@H](C(F)(F)F)CNC3=O)c(C3CCOCC3)nc2n1)C1CCC(F)(F)CC1 [Compound 228] | < 100 | > 1000 |
| CCn1nccc1C(=O)N[C@H](c1cn2nc(C[C@H]3C[C@@H](C(F)(F)F)CNC3=O)c(C3CCCCN3C)nc2n1)C1CCC(F)(F)CC1 (stereo partly drawn) [Compound 230] | 100 to 1000 | > 1000 |
| CCn1nccc1C(=O)N[C@H](c1cn2nc(C[C@H]3C[C@@H](C(F)(F)F)CNC3=O)c(C3CCS(=O)(=O)CC3)nc2n1)C1CCC(F)(F)CC1 [Compound 234, N—((S)-(4,4-difluorocyclohexyl)(3-(1,1-dioxidotetrahydro-2H-thiopyran-4-yl)-2-(((3R,5R)-2-oxo-5-(trifluoromethyl)piperidin-3-yl)methyl)imidazo[1,2-b][1,2,4]triazin-6-yl)methyl)-1-ethyl-1H-pyrazole-5-carboxamide] | < 100 | 100 to 1000 |
| CCn1nccc1C(=O)N[C@H](c1cn2nc(C[C@H]3C[C@@H](C(F)(F)F)CNC3=O)c(N3CCOC[C@H]3C)nc2n1)C1CCC(F)(F)CC1 [Compound 236] | < 100 | 100 to 1000 |
| CCn1nccc1C(=O)N[C@H](c1cn2nc(C[C@H]3C[C@@H](C(F)(F)F)CNC3=O)c(N(C)CCOC)nc2n1)C1CCC(F)(F)CC1 [Compound 237, N—((S)-(4,4-difluorocyclohexyl)(3-((2-methoxyethyl)(methyl)amino)-2-(((3R,5R)-2-oxo-5-(trifluoromethyl)piperidin-3-yl)methyl)imidazo[1,2-b][1,2,4]triazin-6-yl)methyl)-1-ethyl-1H-pyrazole-5-carboxamide] | < 100 | 100 to 1000 |
| CCn1nccc1C(=O)N[C@H](c1cn2nc(C[C@H]3C[C@@H](C(F)(F)F)CNC3=O)c(N3CCN(C(=O)OC(C)(C)C)[C@@H](C)C3)nc2n1)C1CCC(F)(F)CC1 [Compound 238, tert-butyl (S)-4-(6-((S)-(4,4-difluorocyclohexyl)(1-ethyl-1H-pyrazole-5-carboxamido)methyl)-2-(((3R,5R)-2-oxo-5-(trifluoromethyl)piperidin-3-yl)methyl)imidazo[1,2-b][1,2,4]triazin-3-yl)-2-methylpiperazine-1-carboxylate] | 100 to 1000 | 100 to 1000 |
| CCn1nccc1C(=O)N[C@H](c1cn2nc(C[C@H]3C[C@@H](C(F)(F)F)CNC3=O)c(N3CCN[C@@H](C)C3)nc2n1)C1CCC(F)(F)CC1 [Compound 239, N—((S)-(4,4-difluorocyclohexyl)(3-((S)-3-methylpiperazin-1-yl)-2-(((3R,5R)-2-oxo-5-(trifluoromethyl)piperidin-3-yl)methyl)imidazo[1,2-b][1,2,4]triazin-6-yl)methyl)-1-ethyl-1H-pyrazole-5-carboxamide] | 100 to 1000 | > 1000 |
| CCn1nccc1C(=O)N[C@H](c1cn2nc(C[C@H]3C[C@@H](C(F)(F)F)CNC3=O)c(C3CCOC4(C3)CN(C(=O)OC(C)(C)C)C4)nc2n1)C1CCC(F)(F)CC1 (stereo partly drawn) [Compound 240, tert-butyl 8-(6-((S)-(4,4-difluorocyclohexyl)(1-ethyl-1H-pyrazole-5-carboxamido)methyl)-2-(((3R,5R)-2-oxo-5-(trifluoromethyl)piperidin-3-yl)methyl)imidazo[1,2-b][1,2,4]triazin-3-yl)-5-oxa-2-azaspiro[3.5]nonane-2-carboxylate] | 100 to 1000 | 100 to 1000 |
| CCn1nccc1C(=O)N[C@H](c1cn2nc(C[C@H]3C[C@@H](C(F)(F)F)CNC3=O)c(N3C[C@@H](C)O[C@H](C)C3)nc2n1)C1CCC(F)(F)CC1 [Compound 241, N—((S)-(4,4-difluorocyclohexyl)(3-((2R,6R)-2,6-dimethylmorpholino)-2-(((3R,5R)-2-oxo-5-(trifluoromethyl)piperidin-3-yl)methyl)imidazo[1,2-b][1,2,4]triazin-6-yl)methyl)-1-ethyl-1H-pyrazole-5-carboxamide] | < 100 | < 100 |
| CCn1nccc1C(=O)N[C@H](c1cn2nc(C[C@H]3C[C@@H](C(F)(F)F)CNC3=O)c(N3CCN(C(C)(C)C)CC3)nc2n1)C1CCC(F)(F)CC1 [Compound 242, N—((S)-(3-(4-(tert-butyl)piperazin-1-yl)-2-(((3R,5R)-2-oxo-5-(trifluoromethyl)piperidin-3-yl)methyl)imidazo[1,2-b][1,2,4]triazin-6-yl)(4,4-difluorocyclohexyl)methyl)-1-ethyl-1H-pyrazole-5-carboxamide] | < 100 | 100 to 1000 |
| O=C(N[C@H](c1cn2nc(C[C@H]3C[C@@H](C(F)(F)F)CNC3=O)c(C3CCS(=O)(=O)CC3)nc2n1)C1CCC(F)(F)CC1)c1nonc1C1CC1 [Compound 243, 4-cyclopropyl-N—((S)-(4,4-difluorocyclohexyl)(3-(1,1-dioxidotetrahydro-2H-thiopyran-4-yl)-2-(((3R,5R)-2-oxo-5-(trifluoromethyl)piperidin-3-yl)methyl)imidazo[1,2-b][1,2,4]triazin-6-yl)methyl)-1,2,5-oxadiazole-3-carboxamide] | < 100 | > 1000 |
| CCn1nccc1C(=O)N[C@H](c1cn2nc(C[C@H]3C[C@@H](C(F)(F)F)CNC3=O)c(N3CCN(CC4CC4)CC3)nc2n1)C1CCC(F)(F)CC1 [Compound 244, N—((S)-(3-(4-(cyclopropylmethyl)piperazin-1-yl)-2-(((3R,5R)-2-oxo-5-(trifluoromethyl)piperidin-3-yl)methyl)imidazo[1,2-b][1,2,4]triazin-6-yl)(4,4-difluorocyclohexyl)methyl)-1-ethyl-1H-pyrazole-5-carboxamide] | < 100 | 100 to 1000 |
| CCn1nccc1C(=O)N[C@H](c1cn2nc(C[C@H]3C[C@@H](C(F)(F)F)CNC3=O)c(N3CCCOCC3)nc2n1)C1CCC(F)(F)CC1 [Compound 245, N—((S)-(3-(1,4-oxazepan-4-yl)-2-(((3R,5R)-2-oxo-5-(trifluoromethyl)piperidin-3-yl)methyl)imidazo[1,2-b][1,2,4]triazin-6-yl)(4,4-difluorocyclohexyl)methyl)-1-ethyl-1H-pyrazole-5-carboxamide] | < 100 | 100 to 1000 |
| Cc1nccnc1C(=O)N[C@H](c1cn2nc(C[C@H]3C[C@@H](C(F)(F)F)CNC3=O)c(C3CCOCC3)nc2n1)C1CCC(F)(F)CC1 [Compound 246, N—((S)-(4,4-difluorocyclohexyl)(2-(((3R,5R)-2-oxo-5-(trifluoromethyl)piperidin-3-yl)methyl)-3-(tetrahydro-2H-pyran-4-yl)imidazo[1,2-b][1,2,4]triazin-6-yl)methyl)-3-methylpyrazine-2-carboxamide] | 100 to 1000 | > 1000 |
